Reference: patent US7622269B2, “Methods of screening tyramine- and octopamine-expressing cells for compounds and compositions having potential insect control activity” (Tyratech, Inc., priority 2004, dated 2009)
Where “and” joins values, the source holds several entries; their conditions need not be identical. Identical values can stand only once.

How the values were obtained:
[1] = target: T1, Pa oa1 (Periplaneta americana, UniProt Q7YWB7); test: Competitive binding against 3H-yohimbine, Pa oa1 membranes
T1 sequence (Q7YWB7 entry or part of it): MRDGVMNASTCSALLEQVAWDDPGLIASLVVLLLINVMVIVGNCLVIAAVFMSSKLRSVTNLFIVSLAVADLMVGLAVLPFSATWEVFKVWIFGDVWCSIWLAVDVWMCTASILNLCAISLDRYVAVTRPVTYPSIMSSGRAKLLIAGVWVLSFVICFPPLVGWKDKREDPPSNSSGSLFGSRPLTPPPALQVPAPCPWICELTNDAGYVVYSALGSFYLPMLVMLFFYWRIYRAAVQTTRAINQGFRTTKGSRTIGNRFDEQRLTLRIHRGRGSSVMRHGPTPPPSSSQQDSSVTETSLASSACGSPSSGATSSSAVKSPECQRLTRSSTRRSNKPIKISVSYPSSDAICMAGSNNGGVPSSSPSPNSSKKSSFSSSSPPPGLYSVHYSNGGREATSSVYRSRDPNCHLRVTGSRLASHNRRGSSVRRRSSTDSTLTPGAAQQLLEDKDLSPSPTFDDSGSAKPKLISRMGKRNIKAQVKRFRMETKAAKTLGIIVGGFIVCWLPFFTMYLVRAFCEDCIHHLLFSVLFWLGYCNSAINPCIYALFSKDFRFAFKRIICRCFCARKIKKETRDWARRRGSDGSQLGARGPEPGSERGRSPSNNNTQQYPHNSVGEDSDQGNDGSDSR

[2] = target: T1, Pa oa1; test: cAMP levels in HEK-293 cells expressing Pa oa1; format: cell-based
Experimental: (§1) Twenty-four hours before cell treatment, about 300,000 HEK-293 cells are plated in about 1 ml media with about 0.8 mg G418/ml into multi-well dishes (e.g., 12-well, 4.5 cm^2). For cell treatment, the media is aspirated and about 1 ml PBS with about 300 μM IBMX and the test reagent is added. […] Cells are incubated with about 70% ethanol for about 1 h at about −20° C. The cellular debris is centrifuged and then the supernatant is removed and lyophilized to dryness. The amount of cAMP in the extract is determined by using a cAMP binding protein from the ^3H-cAMP Biotrak assay system (Amersham Biosciences) as per the manufacturer's instructions. To test the effects of calcium chelation on cAMP levels, the cells are incubated with about […] BAPTA/AM (Calbiochem Biochemicals, La Jolla, Calif.) for about 10 min before the addition of the test reagents.
(§2) To determine cAMP levels in cells, about 24-hours before cell treatment, 300,000 HEK-293 cells are plated in 1 mL media with 0.8 mg G418/mL into multi-dishes (4.5 cm2). For cell treatment, the media is aspirated and 1 mL PBS with 300 μM IBMX and the test reagent is added. Cells are incubated at 37° C. for 20 min, and the PBS is then aspirated. Cells are incubated with 70% ethanol for 1 hour at −20° C. The cellular debris is centrifuged and then the supernatant is removed and lyophilized to dryness. The amount of cAMP in the extract is determined by using a cAMP binding protein from the ^3H-cAMP Biotrak assay system (Amersham Biosciences, Piscataway, N.J.) as per the manufacturer's instructions.

[3] = target: T1, Pa oa1; test: Intracellular calcium (Fura-2) in HEK-293 cells expressing Pa oa1; format: cell-based
[4] = system: control HEK-293 cells; test: cAMP levels in control HEK-293 cells transfected with pCDNA3 without insert; format: cell-based, human
Experimental: as §1
To determine which second messenger signaling pathways octopamine could affect through the Pa oa1 receptor, HEK-293 cells are stably transfected with pCDNA3-Pa oa1 or pCDNA3 without an insert as a control.

[5] = system: control HEK-293 cells; test: Intracellular calcium in control HEK-293 cells transfected with empty pCDNA3; format: cell-based, human
[6] = target: T2, OAMB (Drosophila melanogaster, UniProt Q7JQF1, L268I/L487I/L521I/T180I); test: Intracellular calcium (Fura-2) in HEK-293 cells expressing OAMB; details: 10 μM
T2 sequence (Q7JQF1 other isoform, or with tags, fused parts or gaps T180I/L268I/L487I/L524I): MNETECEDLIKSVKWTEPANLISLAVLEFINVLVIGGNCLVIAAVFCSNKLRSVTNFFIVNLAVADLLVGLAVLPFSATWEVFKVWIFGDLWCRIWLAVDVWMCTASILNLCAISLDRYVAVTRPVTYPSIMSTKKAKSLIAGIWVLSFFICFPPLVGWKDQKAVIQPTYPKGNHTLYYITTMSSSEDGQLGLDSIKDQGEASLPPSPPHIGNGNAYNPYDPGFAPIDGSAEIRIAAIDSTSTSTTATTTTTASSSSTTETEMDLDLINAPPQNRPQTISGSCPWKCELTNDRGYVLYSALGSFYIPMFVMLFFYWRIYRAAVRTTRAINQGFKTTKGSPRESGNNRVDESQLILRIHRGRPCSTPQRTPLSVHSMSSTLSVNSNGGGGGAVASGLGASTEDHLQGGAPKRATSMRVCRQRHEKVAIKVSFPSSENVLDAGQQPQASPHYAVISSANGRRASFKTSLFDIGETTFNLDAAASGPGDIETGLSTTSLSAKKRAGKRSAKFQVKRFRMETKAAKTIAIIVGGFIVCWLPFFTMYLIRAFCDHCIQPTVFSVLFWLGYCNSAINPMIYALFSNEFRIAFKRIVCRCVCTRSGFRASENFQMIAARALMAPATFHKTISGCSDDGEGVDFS
Experimental: Cells are collected by scraping and are suspended at about 750,000 cells/ml in HBSS with about 5 μM Fura-2 AM (Sigma-Aldrich).

[7] = target: T2, OAMB; test: biochemical; format: binding; parameters: Oligonucleotides designed to amplify the open reading frame of Drosophila melanogaster OAMB; expressed in transfected cells
[8] = target: T2, OAMB; test: cAMP levels in HEK-293 cells expressing OAMB; format: cell-based; parameters: Oligonucleotides designed to amplify the open reading frame of Drosophila melanogaster OAMB; expressed in transfected cells; details: 10 μM
Experimental: as §2

**Q.** How did the Ki ([1]; Table B, 4 nM 3H-yohimbine) turn out when NCC(O)c1ccc(O)cc1 (racemic) [Octopamine, DL-octopamine] was run?
**A.** 13.3 µM

**Q.** And the Ki ([1]; about 2 nM 3H-yohimbine)?
**A.** ~13.3 µM and 13.3 µM

**Q.** And the “affinity of octopamine higher than tyramine” value ([1]; Pa oa1)?
**A.** about 2.3 fold

**Q.** What about the “effect on level of cAMP” value ([2]; 10 μM) of the same compound?
**A.** increases the level of cAMP

**Q.** And the EC50 ([2]; 300 μM IBMX, read-out: EC50 for increase in cAMP)?
**A.** ~1.62 µM

**Q.** What about the fold induction at 100 µM ([2]; HEK293, 20 min, about 100 μM amine, read-out: increase in cAMP) of the same compound?
**A.** ~911

**Q.** What about the cAMP concentration ([2]; about 10 nM amine, basal about 0.48 pmol cAMP) of the same compound?
**A.** about 1.2 pmol cAMP

**Q.** And the “lowest concentration that increases intracellular calcium levels” value [3]?
**A.** about 10 nM

**Q.** And the “effect on level of [Ca2+]i” value ([3]; 10 μM)?
**A.** increases the level [Ca^2+]i

**Q.** What about the “effect on intracellular calcium” value ([3]; about 100 nM) of the same compound?
**A.** a rapid increase in intracellular calcium is detected

**Q.** What about the “changes in cAMP level” value ([4]; 10 μM, empty vector) of the same compound?
**A.** insignificant changes

**Q.** And the “effect on cAMP levels” value ([4]; up to about 100 μM)?
**A.** neither DL-octopamine nor tyramine at concentrations up to about 100 μM has significant effects on cAMP levels

**Q.** And the “changes in [Ca2+]” value ([5]; 10 μM, empty vector)?
**A.** insignificant changes

**Q.** And the “effect on intracellular calcium levels” value ([5]; about 10 μM)?
**A.** Neither about 10 μM octopamine nor about 10 μM tyramine modulates intracellular calcium levels

**Q.** And the “effect on level of [Ca2+]i” value [6]?
**A.** increases the level [Ca^2+]i

**Q.** What about the Ki [7] of the same compound?
**A.** 8.2 µM

**Q.** What about the “affinity of octopamine higher than tyramine” value ([7]; OAMB) of the same compound?
**A.** about 4.1 fold

**Q.** And the “effect on level of cAMP” value [8]?
**A.** increases the level of cAMP
